# Results from US12195437B2, “Lipophenolic flavonoid derivatives useful to reduce carbonyl and oxidative stresses (COS)” (Centre National de la Recherche Scientifique (CNRS), priority 2018, dated 2025).
# How the values were obtained:
# Format in all cases: cell-based
# [1] = system: ARPE-19 cells; test: Protection of lipophenols against all-trans-retinal toxicity (anti-carbonyl stress activity, MTT); settings: trans-retinal 15 μM; for anti-carbonyl stress activity (in words): up to 80 μM lipophenol; for cell survival gain (anti-carbonyl stress activity): compared to stressed untreated cells
# Method: (§1) ARPE-19 cells (cells from the retinal pigment epithelium) were obtained from ATCC, and were grown following the instructions in Dulbecco's Modified Eagle's Medium (DMEM)/Ham F12 (GIBCO) containing 10% v/v fetal bovine serum (FBS) and 1% v/v penicillin/streptomycin under a humidified air (95%)/CO2 (5%) atmosphere at 37° C. For experimental cell seeding and sub-culturing, cells were dissociated with 0.25% trypsin-EDTA, re-suspended in the culture medium and then plated at 1-3×10^5 cells/mL.
# (§2) Cell viability was determined by MTT colorimetric assay. Cells were incubated for 2 h with MTT reagent (0.5 mg/mL). During this incubation time, dehydrogenases of living cells reduced MTT to insoluble purple formazan, which was then dissolved in DMSO. The absorbance at 570 nm and 655 nm of individual wells was measured using a microplate reader (BioRad 550). The percentage of viable cells was calculated as [(OD570 sample−OD655 sample)/(OD570 control−OD655 control)]×100%.
# ARPE-19 cells were plated into 96-well plates (4×10^4 cells/well) and cultured for 24 h to reach confluence before lipophenol treatment. The cell cultures were treated with serum free medium containing lipophenols at different concentrations (0-80 μM) for 1 h. Then all-trans-retinal was added to a final concentration of 15 μM for 4 h, before rinsing with medium. Control cells were incubated with DMSO (0.2%)±all-trans-retinal. The cell viability was determined 16-20 h later using a MTT colorimetric assay. All samples are expressed as percentage of viability compared to non-treated and exposed to all-trans-retinal control cells. Non-treated and non-exposed to all-trans-retinal control cells are normalized at 100% survival.
# The results on the measurement of anti-carbonyl stress activity will be discussed in % cell survival gain compared to cells stressed by trans-retinal (at 15 μM) and not treated with lipophenols. Any survival gain greater than +5% will be considered as a proven anti-carbonyl stress activity.
# [2] = system: ARPE-19 cells; test: Cytotoxicity of lipophenols on ARPE-19 cells (MTT); settings: 24 h; for cell survival: compared to untreated cells (100%); for toxicity (in words): concentrations up to 160 μM
# Method: as §2
# (§3) ARPE-19 cells were plated into 96-well plates (4×10^4 cells/well) and cultured for 24 h to reach confluence before lipophenol treatment. […] Control cells were incubated with DMSO (0.2%). The viability of the cells was determined using a MTT colorimetric assay. All samples are expressed as percentage of viability compared to non-treated control cells (normalized at 100% survival).
# (§4) Results on the measurement of lipophenol toxicity will be discussed in % cell survival at a given lipophenol concentration compared to untreated cells. […] Any concentration of lipophenol resulting in cell survival of less than 5% (zero survival) will be considered a highly toxic concentration.
# [3] = system: ARPE-19 cells; test: Protection of lipophenols against ROS production (DCFDA probe, H2O2); settings: H2O2 600 μM; for increase in ROS compared to non-stressed cells: from 20 μM lipophenol
# Method: as §1
# Reactive oxygen species (ROS) were measured in ARPE-19 cells with the probe DCFDA. The cell permeant reagent DCFDA is deacetylated by cellular esterases to […], which can be oxidized by ROS into the fluorophore 2′,7′-dichlorofluorescein (DCF). ARPE-19 cells were plated into black, opaque bottom 96-well plates (4×10^4 cells/well) and cultured for 24 h to reach confluence before drug treatment. The cell cultures were incubated with 2 μM of DCFDA for 45 min in DMEM/F12 medium without phenol red+1% FBS. The cells were rinsed and incubated with medium containing lipophenols at different concentrations (0-80 μM) for 1 h. Then H2O2 was added to a final concentration of 600 μM for 4 h, followed by the measurement of DCF production by fluorescence spectroscopy with excitation wavelength at 485 nm and emission wavelength at 535 nm. Control cells were incubated with DMSO (0.2%)±DCFDA±H2O2. All samples are expressed as percentage of ROS production compared to non-oxidized control cells (normalized at 100% of ROS production).
# The lowest percentages of increase will therefore be representative of the most protective derivatives.
# [4] = system: ARPE-19 cells; test: Protection of lipophenols against photoactivated A2E toxicity (MTT); settings: A2E 20 μM, blue light
# Method: as §1, §2
# ARPE-19 cells were plated into 96-well plates (4×10^4 cells/well) and cultured for 24 h to reach confluence before lipophenol treatment. The cell cultures were treated with serum free DMEM/F12 medium without phenol red containing lipophenols at different concentrations (0-80 μM) for 1 h. Then A2E was added to a final concentration of 20 μM for 6 h, before rinsing with medium. Control cells were incubated with DMSO (0.2%)+A2E. Cells were exposed to intense blue light (4600 LUX) for 30 min to induce phototoxicity of A2E and incubated at 37° C. The cell viability was determined 16-20 h later using a MTT colorimetric assay. All samples are expressed as percentage of viability compared to non-treated and exposed to A2E control cells. Non-treated and non-exposed to A2E control cells are normalized at 100% survival.
# Photoactivation of A2E leads to its oxidation and can generate cytotoxic derivatives, in particular carbonyl derivatives responsible for carbonyl stress. Results on lipophenol protection against photoactivated A2E toxicity will be discussed in % cell survival gain compared to cells stressed by A2E and not treated by lipophenols. This additional evaluation was not performed for all synthesized lipophenolic derivatives but only a selection of them to discuss the results obtained.
# [5] = Cytotoxicity of lipophenols on ARPE-19 cells (MTT); settings: human, ARPE-19 cells (retinal pigment epithelium), tested 0-160 μM, read-out: CC50 (cytotoxic concentration 50)
# Method: as §2, §3, §4
molecule,measurement,setting,value
"CC(C)Oc1cc(O)cc2oc(-c3ccc(O)c(O)c3)c(O)c(=O)c12 [Q-50iP, reference compound]",anti-carbonyl stress activity (in words),[1],did not show anti-carbonyl stress potency
same,cell survival,[2]; 160 μM lipophenol,72%
same,toxicity (in words),[2],almost no toxicity
same,gain of % of ROS production compared to non-stressed cells,[3]; 80 μM lipophenol,+46%
"CCCCC/C=C\C/C=C\CCCCCCCC(=O)O[C@H]1Cc2c(O)cc(OC(C)C)cc2O[C@@H]1c1ccc(O)c(O)c1 [C-3LA-7OiP, (9Z,12Z)-(2R,3S)-2-(3,4-dihydroxyphenyl)-5-hydroxy-7-isopropoxy-chroman-3-yl octadeca-9,12-dienoate]",cell survival gain (anti-carbonyl stress activity),[1]; 40 μM lipophenol,+27%
same,concentration from which cell survival is zero (highly toxic concentration),[2],80 µM
same,gain of % of ROS production compared to non-stressed cells,[3]; 80 μM lipophenol,+37%
"CCCCC/C=C\C/C=C\CCCCCCCC(=O)O[C@H]1Cc2c(OC(C)C)cc(O)cc2O[C@@H]1c1ccc(O)c(O)c1 [C-3LA-5OiP, (9Z,12Z)-(2R,3S)-2-(3,4-dihydroxyphenyl)-7-hydroxy-5-isopropoxy-chroman-3-yl octadeca-9,12-dienoate]",cell survival gain (anti-carbonyl stress activity),[1]; 80 μM lipophenol,+9%
same,cell survival gain against photoactivated A2E,[4]; concentration not given,+30%
same,gain of % of ROS production compared to non-stressed cells,[3]; 80 μM lipophenol,+67%
"Oc1cc(O)cc(O)c1 [phloroglucinol, reference compound]",anti-carbonyl stress activity (in words),[1],no survival gain
same,cell survival,[2]; 160 μM lipophenol,61%
same,protection against photoactivated A2E (in words),[4]; up to 80 μM lipophenol,no cell protection
same,gain of % of ROS production compared to non-stressed cells,[3]; 80 μM lipophenol,+50%
"CC(C)Oc1cc(O)c2c(c1)O[C@H](c1ccc(O)c(O)c1)[C@@H](O)C2 [C-70iP, reference compound]",anti-carbonyl stress activity (in words),[1],no anti-carbonyl stress activity
same,toxicity (in words),[2],no toxicity
same,increase in ROS compared to non-stressed cells,[3],0%
"CCCCC/C=C\C/C=C\CCCCCCCC(=O)Oc1c(-c2ccc(O)c(O)c2)oc2cc(O)cc(O)c2c1=O [Q-3LA, (9Z,12Z)-2-(3,4-dihydroxyphenyl)-5,7-dihydroxy-4-oxo-4H-chromen-3-yl octadeca-9,12-dienoate]","cell survival gain, maximum protection",[1]; 20 μM lipophenol,+9%
same,cell survival,[2]; 80 μM lipophenol,156%
same,cell survival,[2]; 160 μM lipophenol,124%
same,cell survival gain against photoactivated A2E,[4]; from 60 μM lipophenol,+48%
"CCCCC/C=C\C/C=C\CCCCCCCC(=O)Oc1c(-c2ccc(O)c(O)c2)oc2cc(OC(C)C)cc(O)c2c1=O [Q-3LA-7OiP, (9Z,12Z)-5-hydroxy-2-(3,4-dihydroxyphenyl)-7-isopropoxy-4-oxo-4H-chromen-3-yl octadeca-9,12-dienoate]",cell survival gain (anti-carbonyl stress activity),[1]; 80 μM lipophenol,+38%
same,cell survival,[2]; 160 μM lipophenol,153%
same,cell survival gain against photoactivated A2E,[4]; from 40 μM lipophenol (plateau),+86%
"CC/C=C\C/C=C\C/C=C\C/C=C\C/C=C\C/C=C\CCC(=O)Oc1c(-c2ccc(O)c(O)c2)oc2cc(O)cc(O)c2c1=O [Q-3DHA, (4Z,7Z,10Z,13Z,16Z,19Z)-2-(3,4-dihydroxyphenyl)-5,7-dihydroxy-4-oxo-4H-chromen-3-yl docosa-4,7,10,13,16,19-hexaenoate]","cell survival gain, maximum protection",[1]; 60 μM lipophenol,+21%
same,CC50 at 24 h,[5],< 160 µM
"CC/C=C\C/C=C\C/C=C\CCCCCCCC(=O)Oc1c(-c2ccc(O)c(O)c2)oc2cc(O)cc(OC(C)C)c2c1=O [Q-3ALA-5OiP, (9Z,12Z,15Z)-7-hydroxy-2-(3,4-dihydroxyphenyl)-5-isopropoxy-4-oxo-4H-chromen-3-yl octadeca-9,12,15-trienoate]",cell survival gain (anti-carbonyl stress activity),[1]; 40 μM lipophenol,+24%
same,concentration from which cytotoxicity is induced,[2],60 µM
"CCCCC/C=C\C/C=C\CCCCCCCC(=O)Oc1c(-c2ccc(O)c(O)c2)oc2cc(O)cc(OC(C)C)c2c1=O [Q-3LA-5OiP, (9Z,12Z)-7-hydroxy-2-(3,4-dihydroxyphenyl)-5-isopropoxy-4-oxo-4H-chromen-3-yl octadeca-9,12-dienoate]",cell survival gain (anti-carbonyl stress activity),[1]; 40 μM lipophenol,+34%
same,cell survival gain (anti-carbonyl stress activity),[1]; 80 μM lipophenol,+49%
same,CC50 at 24 h,[5],< 80 µM
"CC(C)Oc1cc(O)c2c(=O)c(O)c(-c3ccc(O)c(O)c3)oc2c1 [Q-70iP, reference compound]",anti-carbonyl stress activity (in words),[1],did not show anti-carbonyl stress potency
same,concentration from which cell survival is zero (highly toxic concentration),[2],40 µM
same,toxicity (in words),[2],very important cytotoxicity even at low concentration
same,gain of % of ROS production compared to non-stressed cells,[3]; 20 μM lipophenol,+31%
"CC(C)Oc1cc(O)cc2c1C[C@H](O)[C@@H](c1ccc(O)c(O)c1)O2 [C-50iP, reference compound]",anti-carbonyl stress activity (in words),[1],no anti-carbonyl stress activity
same,toxicity (in words),[2],no toxicity
same,increase in ROS compared to non-stressed cells,[3],0%
(+)-catechin [reference compound],anti-carbonyl stress activity (in words),[1],no anti-carbonyl stress activity
same,increase in ROS compared to non-stressed cells,[3],0%
"CC/C=C\C/C=C\C/C=C\CCCCCCCC(=O)Oc1c(-c2ccc(O)c(O)c2)oc2cc(OC(C)C)cc(O)c2c1=O [Q-3ALA-7OiP, (9Z,12Z,15Z)-5-hydroxy-2-(3,4-dihydroxyphenyl)-7-isopropoxy-4-oxo-4H-chromen-3-yl octadeca-9,12,15-trienoate]",cell survival gain (anti-carbonyl stress activity),[1]; 80 μM lipophenol,+29%
same,toxicity (in words),[2],no toxicity
same,cell survival gain against photoactivated A2E,"[4]; 80 μM lipophenol, compared to stressed untreated cells",+77%
"CC/C=C\C/C=C\C/C=C\C/C=C\C/C=C\C/C=C\CCC(=O)Oc1c(-c2ccc(O)c(O)c2)oc2cc(OC(C)C)cc(O)c2c1=O [Q-3DHA-7OiP, (4Z,7Z,10Z,13Z,16Z,19Z)-5-hydroxy-2-(3,4-dihydroxyphenyl)-7-isopropoxy-4-oxo-4H-chromen-3-yl docosa-4,7,10,13,16,19-hexaenoate]",cell survival gain (anti-carbonyl stress activity),[1]; 80 μM lipophenol,+29%
same,toxicity (in words),[2],no toxicity
same,cell survival gain against photoactivated A2E,[4]; as early as 20 μM lipophenol (plateau),+62%
